Measured values: ChEMBL document CHEMBL1201862, “PubChem BioAssay data set” (2004)
Calls of active or inactive are those of the source.

Legend:
[1] = target: Metabotropic glutamate receptor 4 (Rattus norvegicus, UniProt P31423); experiment: Modulation of the Metabotropic Glutamate Receptor mGluR4: Rat PAM Potency. [Related pubchem assays (depositor defined):AID2437, AID2807]; format: functional
[2] = target: Protein Rev (Human immunodeficiency virus type 1 group M subtype B (isolate WMJ22)(HIV-1), UniProt P05866); experiment: inhibitors of Rev protein–RRE RNA complex – biochemical, protein-RNA interaction, dose response (AID 842); set-up: species or system Human immunodeficiency virus 1
[3] = target: T1, Small ubiquitin-related modifier 1 (Homo sapiens, UniProt P63165); experiment: SUMO1 protein-protein binding blockers, potency – biochemical, FRET, dose response (AID 624383); format: functional; conditions: read-out: IC50_Mean
[4] = target: T2, Tyrosine-protein phosphatase non-receptor type 7 (Homo sapiens, UniProt P35236); experiment: inhibition of hematopoietic tyrosine phosphatase HePTP – biochemical, set 2, SAR follow-up (AID 449736); format: functional
T2 sequence (P35236 whole entry): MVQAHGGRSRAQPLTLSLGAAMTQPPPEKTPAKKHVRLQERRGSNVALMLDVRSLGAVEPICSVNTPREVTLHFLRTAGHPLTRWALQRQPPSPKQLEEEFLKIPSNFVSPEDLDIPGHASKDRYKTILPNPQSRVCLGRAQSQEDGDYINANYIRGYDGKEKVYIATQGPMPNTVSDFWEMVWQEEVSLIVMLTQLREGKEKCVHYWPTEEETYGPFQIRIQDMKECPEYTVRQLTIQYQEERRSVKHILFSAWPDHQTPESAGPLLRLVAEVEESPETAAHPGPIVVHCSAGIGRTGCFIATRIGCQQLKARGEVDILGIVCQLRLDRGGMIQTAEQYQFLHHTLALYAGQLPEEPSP

[5] = target: T3, Tyrosine-protein phosphatase non-receptor type 22 (Homo sapiens, UniProt Q9Y2R2); experiment: PTPN22 enzyme inhibitors – biochemical, fluorescence, LYP catalytic domain, selectivity assay for LMPTP inhibitor project, dose response (AID 652006); format: functional; conditions: read-out: IC50_Mean
T3 sequence (Q9Y2R2 whole entry): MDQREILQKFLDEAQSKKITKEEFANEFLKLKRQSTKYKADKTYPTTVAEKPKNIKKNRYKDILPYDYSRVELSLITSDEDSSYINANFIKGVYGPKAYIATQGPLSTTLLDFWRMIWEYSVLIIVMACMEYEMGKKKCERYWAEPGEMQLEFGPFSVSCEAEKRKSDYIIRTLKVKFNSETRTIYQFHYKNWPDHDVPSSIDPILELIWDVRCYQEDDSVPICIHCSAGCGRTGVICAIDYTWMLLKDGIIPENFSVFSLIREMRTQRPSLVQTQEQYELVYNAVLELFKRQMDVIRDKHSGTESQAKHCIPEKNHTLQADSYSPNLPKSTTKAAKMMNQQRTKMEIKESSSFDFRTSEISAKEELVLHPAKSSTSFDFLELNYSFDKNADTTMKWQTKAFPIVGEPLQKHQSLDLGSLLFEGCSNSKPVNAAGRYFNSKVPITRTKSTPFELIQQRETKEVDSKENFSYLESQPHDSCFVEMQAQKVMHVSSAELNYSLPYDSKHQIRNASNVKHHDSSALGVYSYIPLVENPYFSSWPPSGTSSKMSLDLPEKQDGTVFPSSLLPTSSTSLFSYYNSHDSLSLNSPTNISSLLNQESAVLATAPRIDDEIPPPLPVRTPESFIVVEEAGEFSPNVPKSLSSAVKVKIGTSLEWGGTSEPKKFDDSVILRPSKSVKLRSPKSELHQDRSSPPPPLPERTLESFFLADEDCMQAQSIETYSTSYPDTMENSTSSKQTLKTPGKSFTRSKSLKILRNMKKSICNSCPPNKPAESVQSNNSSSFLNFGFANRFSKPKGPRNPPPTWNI

[6] = target: T4, Low molecular weight phosphotyrosine protein phosphatase (Homo sapiens, UniProt P24666); format: functional; conditions: read-out: IC50_Mean
T4 sequence (P24666 whole entry): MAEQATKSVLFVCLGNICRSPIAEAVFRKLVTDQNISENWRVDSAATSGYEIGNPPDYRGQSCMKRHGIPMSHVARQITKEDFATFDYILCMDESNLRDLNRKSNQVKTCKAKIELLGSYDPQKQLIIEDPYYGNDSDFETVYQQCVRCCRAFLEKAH

[7] = target: T5, Dual specificity protein phosphatase 3 (Homo sapiens, UniProt P51452); experiment: SAR VHR1 Fluorescent Assay for In Vitro dose response studies. [Related pubchem assays (depositor defined):AID1654, AID1661, AID1878, AID1992, AID2004, AID2070, AID2085]; format: functional
[8] = target: T2, Tyrosine-protein phosphatase non-receptor type 7; experiment: redox-active compounds inhibiting HePTP phosphatase – biochemical, fluorescence, mechanism study (AID 2068); format: functional
[9] = target: T1, Small ubiquitin-related modifier 1; experiment: SUMO1 protein interaction blockers, potency – biochemical, fluorescence polarization, uHTS hits, dose response (AID 624382); format: functional; conditions: read-out: IC50_Mean
[10] = target: T3, Tyrosine-protein phosphatase non-receptor type 22; experiment: SAR LYP1 Fluorescent Assay using OMFP substrate for In Vitro dose response studies - Set 3. [Related pubchem assays (depositor defined):AID1779, AID1784, AID2140, AID2686]; format: functional
[11] = target: T3, Tyrosine-protein phosphatase non-receptor type 22; experiment: inhibition of lymphoid tyrosine phosphatase LYP – biochemical, pCAP fluorogenic substrate, fluorescence, set 3, SAR follow-up (AID 449727); format: functional
[12] = target: T6, Dual specificity protein phosphatase 6 (Rattus norvegicus, UniProt Q64346); format: functional;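 note: confirmatory in vitro dose-response testing of MKP-3 inhibition; recombinant His-tagged MKP-3 made in E. coli BL21 with OMFP substrate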
T6 sequence (Q64346 whole entry): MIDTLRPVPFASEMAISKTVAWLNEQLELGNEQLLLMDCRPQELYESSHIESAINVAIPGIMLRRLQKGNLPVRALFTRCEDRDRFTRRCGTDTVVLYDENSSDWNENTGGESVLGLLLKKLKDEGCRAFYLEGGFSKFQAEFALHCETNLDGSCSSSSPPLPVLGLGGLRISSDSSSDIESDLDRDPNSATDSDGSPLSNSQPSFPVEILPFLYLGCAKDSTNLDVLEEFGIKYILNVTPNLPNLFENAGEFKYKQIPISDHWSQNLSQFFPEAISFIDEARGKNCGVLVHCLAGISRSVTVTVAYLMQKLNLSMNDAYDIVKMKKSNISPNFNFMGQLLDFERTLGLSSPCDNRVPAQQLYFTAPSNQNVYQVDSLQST

[13] = target: T5, Dual specificity protein phosphatase 3; experiment: SAR VHR1 absorbance Assay for In Vitro dose response studies. [Related pubchem assays (depositor defined):AID1654, AID1661, AID1878, AID1992, AID2004]
[14] = target: Tyrosine-protein phosphatase non-receptor type 12 (Homo sapiens, UniProt Q05209); experiment: SAR Selectivity Analysis of small molecule inhibitors of PEST using pCAP in a fluorescence assay. [Related pubchem assays (depositor defined):AID1779, AID1784, AID2135]; format: functional
[15] = target: T5, Dual specificity protein phosphatase 3; experiment: MOA VHR1 Fluorescent secondary assay for identification of redox-state modulating compounds. [Related pubchem assays (depositor defined):AID1654, AID1661, AID1878, AID1957]
[16] = target: T4, Low molecular weight phosphotyrosine protein phosphatase; format: functional; conditions: read-out: IC50_Mean; remark: listed apart in the source
[17] = system: HEK293; experiment: Fluorescence-based counterscreen for potentiators or agonists of NPY-Y1: cell-based high-throughput dose response assay for inhibitors of cyclic nucleotide gated ion channel (CNGC) activity. In this assay, the parental HEK293 cell line transfected with a cyclic-nucleotide gated ion channel (CNGC)-based cAMP sensor is used to measure inhibition of isoproterenol-induced CNGC …; format: functional; conditions: Homo sapiens
[18] = target: T7, Neuropeptide Y receptor type 2 (Homo sapiens, UniProt P49146); experiment: Fluorescence-based counterscreen for agonists of NPY-Y1: cell-based high-throughput dose response assay for agonists of NPY-Y2.; format: functional
T7 sequence (P49146 whole entry): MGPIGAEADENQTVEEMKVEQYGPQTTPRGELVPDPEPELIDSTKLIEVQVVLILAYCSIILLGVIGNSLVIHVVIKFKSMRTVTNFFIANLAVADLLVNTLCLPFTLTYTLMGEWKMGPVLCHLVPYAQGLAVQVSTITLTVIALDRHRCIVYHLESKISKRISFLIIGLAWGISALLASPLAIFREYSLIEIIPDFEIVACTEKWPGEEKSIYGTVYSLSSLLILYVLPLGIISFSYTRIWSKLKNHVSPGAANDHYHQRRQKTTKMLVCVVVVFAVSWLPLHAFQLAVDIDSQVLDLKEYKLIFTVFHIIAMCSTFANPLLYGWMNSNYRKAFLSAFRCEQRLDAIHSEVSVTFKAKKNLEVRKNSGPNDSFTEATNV

[19] = target: T8, Neuropeptide Y receptor type 1 (Homo sapiens, UniProt P25929); experiment: Fluorescence-based dose response cell-based high-throughput screening assay for agonists of NPY-Y1. [Related pubchem assays: 1697 (Screening assay (NPY-Y1 agonists).), 1359 (Screening assay (NPY-Y2 potentiators or agonists).), 1304 (Screening assay (NPY-Y1 potentiators or agonists).), 1704 (Screening assay (CNGC inhibitors).), 1791 (Summary AID.)]; format: functional
T8 sequence (P25929 whole entry): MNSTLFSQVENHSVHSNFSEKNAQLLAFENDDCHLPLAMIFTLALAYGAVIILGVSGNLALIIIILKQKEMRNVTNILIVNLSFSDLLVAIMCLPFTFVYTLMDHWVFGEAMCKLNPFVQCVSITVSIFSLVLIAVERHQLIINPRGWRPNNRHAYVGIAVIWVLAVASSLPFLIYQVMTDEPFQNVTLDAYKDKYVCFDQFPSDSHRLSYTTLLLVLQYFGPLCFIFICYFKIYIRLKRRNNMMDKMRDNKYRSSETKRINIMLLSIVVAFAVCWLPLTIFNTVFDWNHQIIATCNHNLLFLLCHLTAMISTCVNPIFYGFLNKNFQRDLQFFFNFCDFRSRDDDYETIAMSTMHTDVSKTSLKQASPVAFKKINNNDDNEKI

T5 sequence (P51452 whole entry): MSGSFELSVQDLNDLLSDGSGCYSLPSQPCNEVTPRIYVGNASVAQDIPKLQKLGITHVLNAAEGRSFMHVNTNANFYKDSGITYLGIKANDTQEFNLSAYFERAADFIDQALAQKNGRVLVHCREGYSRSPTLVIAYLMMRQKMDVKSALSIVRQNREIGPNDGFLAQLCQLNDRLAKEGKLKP
T1 sequence (P63165 whole entry): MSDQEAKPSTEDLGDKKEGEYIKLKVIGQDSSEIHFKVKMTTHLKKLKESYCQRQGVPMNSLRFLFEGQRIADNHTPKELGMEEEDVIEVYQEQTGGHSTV
Chain of Protein Rev (P05866 whole entry): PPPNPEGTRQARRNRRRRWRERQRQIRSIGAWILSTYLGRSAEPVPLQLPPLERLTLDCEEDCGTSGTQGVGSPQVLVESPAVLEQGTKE
Chain of Metabotropic glutamate receptor 4 (P31423 whole entry): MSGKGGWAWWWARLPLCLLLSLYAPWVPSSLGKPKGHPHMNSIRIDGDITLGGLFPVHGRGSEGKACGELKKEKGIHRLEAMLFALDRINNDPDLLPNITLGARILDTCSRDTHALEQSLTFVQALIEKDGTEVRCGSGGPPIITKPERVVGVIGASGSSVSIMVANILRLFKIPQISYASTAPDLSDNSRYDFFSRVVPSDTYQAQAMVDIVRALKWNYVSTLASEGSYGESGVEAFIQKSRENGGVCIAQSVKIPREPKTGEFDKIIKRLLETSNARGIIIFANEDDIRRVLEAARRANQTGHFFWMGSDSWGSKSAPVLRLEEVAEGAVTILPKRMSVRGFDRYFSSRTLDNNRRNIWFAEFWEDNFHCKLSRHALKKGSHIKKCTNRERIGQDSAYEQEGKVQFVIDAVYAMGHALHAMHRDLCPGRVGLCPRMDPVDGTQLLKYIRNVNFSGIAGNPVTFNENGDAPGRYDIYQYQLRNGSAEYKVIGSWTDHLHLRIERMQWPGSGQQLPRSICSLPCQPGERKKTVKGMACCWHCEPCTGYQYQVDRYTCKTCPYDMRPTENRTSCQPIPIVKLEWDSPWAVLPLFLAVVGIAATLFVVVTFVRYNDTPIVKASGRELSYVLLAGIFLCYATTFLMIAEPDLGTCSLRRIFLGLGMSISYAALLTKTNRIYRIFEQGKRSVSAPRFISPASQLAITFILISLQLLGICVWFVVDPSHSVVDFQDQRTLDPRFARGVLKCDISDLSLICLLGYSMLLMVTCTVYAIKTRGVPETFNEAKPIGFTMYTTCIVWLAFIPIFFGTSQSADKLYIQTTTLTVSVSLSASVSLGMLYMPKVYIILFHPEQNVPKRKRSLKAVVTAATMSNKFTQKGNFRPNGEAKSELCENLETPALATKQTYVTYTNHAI
Chain of Tyrosine-protein phosphatase non-receptor type 12 (Q05209 whole entry): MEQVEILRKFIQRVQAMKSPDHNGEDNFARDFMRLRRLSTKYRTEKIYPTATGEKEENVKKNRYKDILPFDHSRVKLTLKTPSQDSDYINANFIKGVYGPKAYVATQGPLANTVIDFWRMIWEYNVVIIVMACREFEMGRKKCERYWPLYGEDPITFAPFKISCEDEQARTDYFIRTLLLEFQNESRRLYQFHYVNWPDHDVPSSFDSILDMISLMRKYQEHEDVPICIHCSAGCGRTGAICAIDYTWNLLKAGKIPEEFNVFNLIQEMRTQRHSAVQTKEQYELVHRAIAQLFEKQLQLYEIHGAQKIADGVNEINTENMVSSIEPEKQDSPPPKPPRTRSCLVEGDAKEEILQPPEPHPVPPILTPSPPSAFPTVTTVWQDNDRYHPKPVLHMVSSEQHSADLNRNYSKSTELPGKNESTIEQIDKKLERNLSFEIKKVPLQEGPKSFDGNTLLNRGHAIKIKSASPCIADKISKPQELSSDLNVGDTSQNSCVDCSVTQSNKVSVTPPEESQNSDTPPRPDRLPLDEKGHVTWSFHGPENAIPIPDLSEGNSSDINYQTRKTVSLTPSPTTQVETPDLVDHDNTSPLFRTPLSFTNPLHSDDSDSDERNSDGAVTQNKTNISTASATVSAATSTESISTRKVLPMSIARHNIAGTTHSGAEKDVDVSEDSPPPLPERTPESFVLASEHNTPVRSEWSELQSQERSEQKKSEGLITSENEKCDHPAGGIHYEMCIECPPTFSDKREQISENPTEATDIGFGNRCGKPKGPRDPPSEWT

CC1(c2ccccc2)CC(=O)N(c2ccc(NC(=O)c3ccccn3)cc2Cl)C1=O (centres undefined)
EC50 [1]: 0.54 µM (active)

COc1ccc(CCNC(C)CCc2ccc(OC)cc2)cc1 (centres undefined)
IC50 [2]: > 79.4 µM (not active)

CCOC(=O)C1=C(C)N=c2sc(=Cc3ccc(OCC(=O)O)cc3)c(=O)n2C1c1ccc(SC)cc1 (centres undefined)
IC50 [3]: 9.68 µM (active) | IC50 [4]: 0.684 µM (active) | IC50 [5]: 16.2 µM (active) | IC50 [6]: 52.8 µM (inactive) | IC50 [7]: 7.7 µM (active) | IC50 [8]: 0.537 µM (active) | IC50 [9]: > 66.6 µM (inactive) | IC50 [10]: 5.06 µM (active) | IC50 [11]: 5.14 µM (active) | IC50 [12]: 18.9 µM (active) | IC50 [13]: 3.14 µM (active) | IC50 [14]: 2.52 µM (active) | IC50 [15]: 2.01 µM (active) | IC50 [16]: 14.6 µM (active)

Oc1ccccc1Cn1c(-c2ccccc2O)nc2ccccc21
IC50 [17]: 14.3 µM (not active) | EC50 [18]: 24.7 µM (not active) | EC50 [19]: 15.6 µM (not active)
